Series [1] is described as follows: Half life of the compound. Type of series: physicochemical.
Series [2] concerns U-87 MG. As to the kind of experiment: Cytotoxicity against human U87 cells assessed as reduction in cell viability incubated for 72 hrs in presence of rAOC-Rib by alamar blue assay. The class given is functional, cell-based, U-87MG ATCC. (Alamar Blue is a resazurin reagent that responds to reducing activity.)
Series [3] concerns U-87 MG. As to the kind of experiment: Cytotoxicity against human U87 cells assessed as reduction in cell viability incubated for 72 hrs by alamar blue assay. Type of series: functional, cell-based, U-87MG ATCC.
A short description of series [4]: Drug uptake in tumor of mouse xenografted with human U87 MG cells assessed as increase in fluorescence signal at 25 nmol, iv measured after 24 hrs by […] imaging method. Type of series: ADME, organism-based, Neoplasm, U-87MG ATCC. Particulars: in vivo.
Series [5] in a line: Drug uptake in liver of mouse xenografted with human U87 MG cells at 25 nmol, iv measured after 24 hrs by fluorescence imaging analysis. Type of series: ADME, organism-based, U-87MG ATCC. Particulars: in vivo.
For series [6], the system named is MDA-MB-231. As to the kind of experiment: Inhibition of PARP production in human MDA-MB-231 cells preincubated for 24 hrs followed by H2O2 addition and measured over 15 mins. Type of series: cell-based. Particulars: dose 0.001-10 µM, time 1455.0 min, DDE = dose-dependent effect.
Series [7] has as its system MDA-MB-231. As to the kind of experiment: Cytotoxicity against human MDA-MB-231 cells assessed as reduction in cell viability incubated for 72 hrs by alamar blue assay. Type of series: functional, cell-based. Particulars: MDA-MB-231, 72 h.
For the next series, the system named is U87. As to the kind of experiment: Inhibition of PARP production in human U87 cells preincubated for 24 hrs followed by H2O2 addition and measured over 15 mins. Type of series: cell-based. As to conditions: dose 0.1-10 µM, time 1455.0 min, DDE = dose-dependent effect.

SMILES strings stand for the structures.

Take `CC1(C)C(/C=C/C2=C(Cl)C(=C/C=C3/N(CCCCCC(=O)O)c4ccccc4C3(C)C)/CCC2)=[N+](CCCCCC(=O)O)c2ccccc21`: the half-life – broadly, the time needed for the level to fall by half in the phase considered – in series [1] came to 30 min. Besides, the half-maximal inhibitory concentration (IC50) (as a rule, the concentration at which inhibition is half-maximal) in the series on U-87 MG [2] is 28 µM; in the series with U-87 MG [3], 27 µM.

In the case of `CN(CCCCCCCCN)Cc1ccc(-c2[nH]c3cc(F)cc4c3c2CCNC4=O)cc1`, the IC50 in the series with U-87 MG [3] was 79 µM.

On to `CN(Cc1ccc(-c2[nH]c3cc(F)cc4c3c2CCNC4=O)cc1)C(=O)CCCCCN1/C(=C/C=C2\CCCC(/C=C/C3=[N+](CCCCCC(=O)O)c4ccccc4C3(C)C)=C2Cl)C(C)(C)c2ccccc21`, for which the Drug uptake entry in series [4] and in series [5] was “Active” in each case. Also, the inhibition result in the series on MDA-MB-231 [6] was “Dde”. Also, the IC50 in the series with MDA-MB-231 [7] is 13 µM; in the series on U-87 MG [3], 15 µM.

On to `CN(Cc1ccc(-c2[nH]c3cc(F)cc4c3c2CCNC4=O)cc1)C(=O)CCCCCCCNC(=O)CCCCCN1/C(=C/C=C2\CCCC(/C=C/C3=[N+](CCCCCC(=O)O)c4ccccc4C3(C)C)=C2Cl)C(C)(C)c2ccccc21`, for which the inhibition entry in the series on U87 was “Dde”. For the same compound, in the series with U-87 MG [3], the IC50 came to 12 µM.

Take `CNCc1ccc(-c2[nH]c3cc(F)cc4c3c2CCNC4=O)cc1` [RUCAPARIB]: the 50% inhibitory concentration (IC50) is 39 µM with MDA-MB-231 [7] and 20 µM in the series on U-87 MG [3].

The values are drawn from ChEMBL document CHEMBL5131558, “Fluorescent PARP Inhibitors Applied To Intracranial Glioblastoma: Accumulation and Persistence In Vivo” (ACS Med Chem Lett, 2022).
